In one assay the target is T1, TbrCatL (Trypanosoma brucei rhodesiense, UniProt Q95PM0).
T1 construct: Conor Caffrey (University of California San Diego)
T1 sequence (Q95PM0 entry or part of it): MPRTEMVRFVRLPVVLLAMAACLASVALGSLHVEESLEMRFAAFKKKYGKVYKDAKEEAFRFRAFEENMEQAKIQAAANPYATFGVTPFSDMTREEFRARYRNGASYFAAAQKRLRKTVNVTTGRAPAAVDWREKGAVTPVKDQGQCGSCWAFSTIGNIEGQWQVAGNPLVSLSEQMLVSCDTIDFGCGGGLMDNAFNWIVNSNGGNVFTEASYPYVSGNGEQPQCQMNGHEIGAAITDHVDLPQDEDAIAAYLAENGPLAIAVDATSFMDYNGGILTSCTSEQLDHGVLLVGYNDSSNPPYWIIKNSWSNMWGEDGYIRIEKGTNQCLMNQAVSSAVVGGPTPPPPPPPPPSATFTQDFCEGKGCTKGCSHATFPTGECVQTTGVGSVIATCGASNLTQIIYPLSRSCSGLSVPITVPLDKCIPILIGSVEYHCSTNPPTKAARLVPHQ
The assay is described as follows: TbrCatL enzymatic inhibition assay (cleavage of fluorogenic substrate Z-FR-AMC). The following applies: 0’ (no pre-incubation); sheet Screening results. It counts as biochemical. Summed up: (§1)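 Recombinant enzymes assayed by Z-Phe-Arg-AMC cleavage at 25 °C, fluorescence 340/440 nm over 5–7 min, with 10 min or no enzyme–compound preincubation.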
Sequence of cruzain (P25779 123-337 limits assumed): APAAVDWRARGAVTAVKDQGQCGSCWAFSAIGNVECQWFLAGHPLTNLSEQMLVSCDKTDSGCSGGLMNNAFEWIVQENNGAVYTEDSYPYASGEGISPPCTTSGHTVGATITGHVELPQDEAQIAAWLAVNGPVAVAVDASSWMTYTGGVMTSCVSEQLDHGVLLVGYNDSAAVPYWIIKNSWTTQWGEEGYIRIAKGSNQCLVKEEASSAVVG
As to `COC(=O)c1ccc(F)cc1NS(=O)(=O)c1cccc(-c2cnn(Cc3ccccc3)c2)c1` [MMV688350], the “TbrCatL Inhibition 0’” value is 2%.
On the same count and under the same terms, next, `COc1ccc(C2=NN(C3CCCCCC3)C(=O)C2(C)C)cc1OCc1ccccn1` [MMV688360]: 13%; `NCCN(C(=O)c1ccc(Cl)cc1Cl)c1ccc(OCc2ccc(Cl)cc2)cc1` [MMV688371]: 6%.
As for `CC(C)(C)OC(=O)N1CCN(c2nccc(-c3ccc(-c4ccc(Cl)cc4)s3)n2)CC1` [MMV688416], the “TbrCatL Inhibition 0’” value worked out at 22%.

Still in this assay, the particulars now being: 0’ (pre-incubation time); Pathogen Box screening results.
As for `CO[C@@H]1CN(c2ccc(C#CC3(O)CN4CCC3CC4)c(Cc3ccccc3)n2)C[C@H]1O` (some centres unmarked) [MMV688415], the “TbrCatL Inhibition 0’” value is on record as -8%.

The same assay, now with this note: 0’ (pre-incubation time); sheet "Screening results".
As for `O=C1[C@@H](Oc2ccccc2)[C@@H](c2ccc(Cl)cc2)N1CCn1cnc2c(NCc3ccccc3)ncnc21` [MMV688352], the “TbrCatL 0’ Inhibition” value was 5%.
On the same count and under the same terms, next, `c1cc(C2=NCCN2)cc(-c2cc(-c3ccc(C4=NCCN4)cc3)no2)c1` [MMV688361]: 1.9%.
Turning to `CC(C)(C)OC(=O)N1CCC(Cn2nc(-c3cnc4ccccc4c3)c3c(N)ncnc32)CC1` [MMV688364], the “TbrCatL 0’ Inhibition” value was -10%.
As for `O=C(Nc1ccc(F)c(-c2nc3ncc(-c4ccccc4)cc3[nH]2)c1)N1CCCC1` [MMV688372], the “TbrCatL 0’ Inhibition” value was -5%.
Still for that read-out and setting: for `COc1cc(C2=NCCN2)ccc1-c1cn(-c2cccc(C3=NCCN3)c2)nn1` [MMV688407] the value was 14%; for `CC1=Nc2ccc(Cl)cc2C(c2ccccc2)N1CCNC(=O)CN(C)C` (centres unmarked) [MMV688410], -4.7%.
Turning to `Nc1ncnc2c1c(-c1cnc3ccccc3c1)nn2CC1CCNCC1` [MMV688411], the “TbrCatL 0’ Inhibition” value is 1.7%.
Regarding `CC(C)n1nc(-c2cc3c(Cl)cccc3[nH]2)c2c(N)ncnc21` [MMV688417], the “TbrCatL 0’ Inhibition” value is -11%.
The same measure, in the same setting: for `CCCCN(CCCC)c1c(C#N)cc(S(=O)(=O)Nc2ccccc2)cc1C#N` [MMV688467] the value was -4.5%.

Staying with this assay, now noted: 10’ (pre-incubation time); Pathogen Box screening results.
Turning to `CO[C@@H]1CN(c2ccc(C#CC3(O)CN4CCC3CC4)c(Cc3ccccc3)n2)C[C@H]1O` (some centres unmarked) [MMV688415], the “TbrCatL Inhibition 10’” value was 3%.

Still in this assay, the particulars now being: 10’ (pre-incubation time); sheet "Screening results".
In the case of `O=C1[C@@H](Oc2ccccc2)[C@@H](c2ccc(Cl)cc2)N1CCn1cnc2c(NCc3ccccc3)ncnc21` [MMV688352], the “TbrCatL 10’ Inhibition” value amounted to 12%.
Still for that read-out and setting: for `c1cc(C2=NCCN2)cc(-c2cc(-c3ccc(C4=NCCN4)cc3)no2)c1` [MMV688361] the value was -3.5%; for `CC(C)(C)OC(=O)N1CCC(Cn2nc(-c3cnc4ccccc4c3)c3c(N)ncnc32)CC1` [MMV688364], -15%.
For `O=C(Nc1ccc(F)c(-c2nc3ncc(-c4ccccc4)cc3[nH]2)c1)N1CCCC1` [MMV688372], the “TbrCatL 10’ Inhibition” value is reported as -11%.
The same measure, in the same setting: for `COc1cc(C2=NCCN2)ccc1-c1cn(-c2cccc(C3=NCCN3)c2)nn1` [MMV688407] the value was 36%; for `CC1=Nc2ccc(Cl)cc2C(c2ccccc2)N1CCNC(=O)CN(C)C` (centres unmarked) [MMV688410], -3.5%; for `Nc1ncnc2c1c(-c1cnc3ccccc3c1)nn2CC1CCNCC1` [MMV688411], 3.7%.
On the same count and under the same terms, next, `CC(C)n1nc(-c2cc3c(Cl)cccc3[nH]2)c2c(N)ncnc21` [MMV688417]: -13%; `CCCCN(CCCC)c1c(C#N)cc(S(=O)(=O)Nc2ccccc2)cc1C#N` [MMV688467]: 8%.

The same assay, now with this note: 10’ (pre-incubation); sheet Screening results.
As to `COC(=O)c1ccc(F)cc1NS(=O)(=O)c1cccc(-c2cnn(Cc3ccccc3)c2)c1` [MMV688350], the “TbrCatL Inhibition 10’” value is on record as -9%.
`COc1ccc(C2=NN(C3CCCCCC3)C(=O)C2(C)C)cc1OCc1ccccn1` [MMV688360]: the “TbrCatL Inhibition 10’” value is recorded as 16%.
On the same count and under the same terms, for `NCCN(C(=O)c1ccc(Cl)cc1Cl)c1ccc(OCc2ccc(Cl)cc2)cc1` [MMV688371] the value was 1%; for `CC(C)(C)OC(=O)N1CCN(c2nccc(-c3ccc(-c4ccc(Cl)cc4)s3)n2)CC1` [MMV688416], 27%.

The next assay has as its target cruzain (Trypanosoma cruzi, UniProt P25779). The assay is described as follows: biochemical. Conditions: 0’ (no pre-incubation); sheet Screening results. Summed up:
as §1
Consider `COC(=O)c1ccc(F)cc1NS(=O)(=O)c1cccc(-c2cnn(Cc3ccccc3)c2)c1` [MMV688350], for which the “Cruzain Inhibition 0’” value is reported as -7%.
As to `COc1ccc(C2=NN(C3CCCCCC3)C(=O)C2(C)C)cc1OCc1ccccn1` [MMV688360], the “Cruzain Inhibition 0’” value is 14%.
Turning to `NCCN(C(=O)c1ccc(Cl)cc1Cl)c1ccc(OCc2ccc(Cl)cc2)cc1` [MMV688371], the “Cruzain Inhibition 0’” value stood at 9%.
Still for that read-out and setting: for `CC(C)(C)OC(=O)N1CCN(c2nccc(-c3ccc(-c4ccc(Cl)cc4)s3)n2)CC1` [MMV688416] the value was 18%.

The assay is the same for the next values; noted with them: 0’ (pre-incubation time); Pathogen Box screening results.
With `CO[C@@H]1CN(c2ccc(C#CC3(O)CN4CCC3CC4)c(Cc3ccccc3)n2)C[C@H]1O` (some centres unmarked) [MMV688415], the “Cruzain Inhibition 0’” value was -4%.

The same assay, now with this note: 0’ (pre-incubation time); sheet "Screening results".
Take `O=C1[C@@H](Oc2ccccc2)[C@@H](c2ccc(Cl)cc2)N1CCn1cnc2c(NCc3ccccc3)ncnc21` [MMV688352]: the “Cruzain 0’ Inhibition” value was 0%.
`c1cc(C2=NCCN2)cc(-c2cc(-c3ccc(C4=NCCN4)cc3)no2)c1` [MMV688361]: the “Cruzain 0’ Inhibition” value is given as 4.5%.
The same measure, in the same setting: for `CC(C)(C)OC(=O)N1CCC(Cn2nc(-c3cnc4ccccc4c3)c3c(N)ncnc32)CC1` [MMV688364] the value was -14%.
On the same count and under the same terms, next, `O=C(Nc1ccc(F)c(-c2nc3ncc(-c4ccccc4)cc3[nH]2)c1)N1CCCC1` [MMV688372]: 4%.
The same measure, in the same setting: next, `COc1cc(C2=NCCN2)ccc1-c1cn(-c2cccc(C3=NCCN3)c2)nn1` [MMV688407]: 2.2%; `CC1=Nc2ccc(Cl)cc2C(c2ccccc2)N1CCNC(=O)CN(C)C` (centres unmarked) [MMV688410]: -0.5%.
`Nc1ncnc2c1c(-c1cnc3ccccc3c1)nn2CC1CCNCC1` [MMV688411]: the “Cruzain 0’ Inhibition” value is on record as -0.3%.
The same measure, in the same setting: for `CC(C)n1nc(-c2cc3c(Cl)cccc3[nH]2)c2c(N)ncnc21` [MMV688417] the value was 5.6%; for `CCCCN(CCCC)c1c(C#N)cc(S(=O)(=O)Nc2ccccc2)cc1C#N` [MMV688467], -2.2%.

The assay is the same for the next values; noted with them: 10’ (pre-incubation time); Pathogen Box screening results.
For the compound `CO[C@@H]1CN(c2ccc(C#CC3(O)CN4CCC3CC4)c(Cc3ccccc3)n2)C[C@H]1O` (some centres unmarked) [MMV688415], the “Cruzain Inhibition 10’” value came out at 16%.

Still in this assay, the particulars now being: 10’ (pre-incubation time); sheet "Screening results".
As for `O=C1[C@@H](Oc2ccccc2)[C@@H](c2ccc(Cl)cc2)N1CCn1cnc2c(NCc3ccccc3)ncnc21` [MMV688352], the “Cruzain 10’ Inhibition” value was found to be 23%.
On the same count and under the same terms, for `c1cc(C2=NCCN2)cc(-c2cc(-c3ccc(C4=NCCN4)cc3)no2)c1` [MMV688361] the value was 7.4%; for `CC(C)(C)OC(=O)N1CCC(Cn2nc(-c3cnc4ccccc4c3)c3c(N)ncnc32)CC1` [MMV688364], 0%.
Still for that read-out and setting: next, `O=C(Nc1ccc(F)c(-c2nc3ncc(-c4ccccc4)cc3[nH]2)c1)N1CCCC1` [MMV688372]: 4.3%; `COc1cc(C2=NCCN2)ccc1-c1cn(-c2cccc(C3=NCCN3)c2)nn1` [MMV688407]: 21%.
For the compound `CC1=Nc2ccc(Cl)cc2C(c2ccccc2)N1CCNC(=O)CN(C)C` (centres unmarked) [MMV688410], the “Cruzain 10’ Inhibition” value came to 3.8%.
On the same count and under the same terms, next, `Nc1ncnc2c1c(-c1cnc3ccccc3c1)nn2CC1CCNCC1` [MMV688411]: 5.5%.
The same measure, in the same setting: next, `CC(C)n1nc(-c2cc3c(Cl)cccc3[nH]2)c2c(N)ncnc21` [MMV688417]: -1.4%; `CCCCN(CCCC)c1c(C#N)cc(S(=O)(=O)Nc2ccccc2)cc1C#N` [MMV688467]: 1.8%.

The assay is the same for the next values; noted with them: 10’ (pre-incubation); sheet Screening results.
With `COC(=O)c1ccc(F)cc1NS(=O)(=O)c1cccc(-c2cnn(Cc3ccccc3)c2)c1` [MMV688350], the “Cruzain Inhibition 10’” value is listed as -5%.
The same measure, in the same setting: next, `COc1ccc(C2=NN(C3CCCCCC3)C(=O)C2(C)C)cc1OCc1ccccn1` [MMV688360]: 11%.
Still for that read-out and setting: next, `NCCN(C(=O)c1ccc(Cl)cc1Cl)c1ccc(OCc2ccc(Cl)cc2)cc1` [MMV688371]: 12%.
`CC(C)(C)OC(=O)N1CCN(c2nccc(-c3ccc(-c4ccc(Cl)cc4)s3)n2)CC1` [MMV688416]: the “Cruzain Inhibition 10’” value is reported as 18%.

The values above are taken from publication PMC9967275, “Screening the Pathogen Box to Discover and Characterize New Cruzain and TbrCatL Inhibitors” (Pathogens, 2023).
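Further: at 5 µM compound concentration.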
